Measurements reported in patent US20120295965A1, “FUSED THIOPHENES AS DUAL INHIBITORS OF EGFR/VEGFR AND THEIR USE IN THE TREATMENT OF CANCER” (priority 2009, published 2012).

Tests used:
[1] = test system: EGF response in A431 cells; experiment: Epic label-free DMR biosensor cellular assay, EGF marker in A431; format: cell-based, human
Method: (§1) All cell lines were obtained from American Type Cell Culture (Manassas, Va.). The cell culture medium was as follows: (1) Dulbecco's modified Eagle's medium (DMEM) supplemented with 10% fetal bovine serum (FBS), 4.5 g/liter glucose, 2 mM glutamine, and antibiotics for human epidermoid carcinoma A431; and (2) McCoy's 5a Medium Modified supplemented with 10% FBS, 4.5 g/liter glucose, 2 mM glutamine, and antibiotics for human colorectal adenocarcinoma HT29.
(§2) Cells were typically grown using ˜1 to 2×10^4 cells per well at passage 3 to 15 suspended in 50 μl of the corresponding culture medium in the biosensor microplate, and were cultured at 37° C. under air/5% CO2 for ˜1 day. Except for A431 which underwent one day culture followed by one starvation in serum free medium, all other cells were directly assayed without starvation. The confluency for all cells at the time of assays was ˜95% to 100%.
(§3) Epic® beta version wavelength interrogation system (Corning Inc., Corning, N.Y.) was used for whole cell sensing. This system consists of a temperature-control unit, an optical detection unit, and an on-board liquid handling unit with robotics. The detection unit is centered on integrated fiber optics, and enables kinetic measures of cellular responses with a time interval of ˜15 sec.
(§4) To study the influence of molecules on a marker-induced response, a second stimulation with the marker at a fixed dose (typically at EC80 or EC100) was applied. The resonant wavelengths of all biosensors in the microplate were normalized again to establish a second baseline, right before the second stimulation. The two stimulations were usually separated by ˜1 hr.
(§5) All studies were carried out at a controlled temperature (28° C.). At least two independent sets of experiments, each with at least three replicates, were performed.
(§6) The DMR modulation index were generated against 4 markers across two distinct cell lines—the EGFR agonist EGF in A431 (EGF at 32 nM), and the EGFR agonist EGF in HT29 (EGF at 2 nM), the hERG activator mallotoxin (MTX) in HT29 (MTX at 16 micromlar), and the NTS1/NTS3 agonist neurotensin (NT) in HT29 (NT at 2 nM). The EGF responses in A431 cells include the early P-DMR event (˜5 min after EGF stimulation) and the subsequent N-DMR event (˜30 min after EGF stimulation). The EGF responses in HT29 include the early P-DMR event (˜5 min after EGF stimulation) and the late P-DMR event (˜50 min after EGF stimulation), whereas the mallotoxin response in HT29 is the P-DMR response 50 min after MTX stimulation, and the NT response in HT29 is the P-DMR 50 min after NT stimulation. In all cases, the amplitudes of respective DMR events were used as the basis to calculate the percentages of modulation by each inhibitor.

EGF response in HT29 = experiment: Epic label-free DMR biosensor cellular assay, EGF marker in HT29; format: cell-based, human
Method: as §1, §2, §3, §4, §5, §6

[2] = test system: mallotoxin response in HT29; experiment: Epic label-free DMR biosensor cellular assay, hERG activator mallotoxin marker in HT29
Method: HT29 expresses VEGFR1 (Flt1 receptor), but not other VEGF receptors.
as §1
as §2, with “starvation.” for “starvation. The confluency for all cells at the time of assays was ˜95% to 100%.”
as §3
For biosensor cellular assays, molecule solutions were made by diluting the stored concentrated solutions with the HBSS (1× Hanks balanced salt solution, plus 20 mM Hepes, pH 7.1), and transferred into a 384well polypropylene molecule storage plate to prepare a molecule source plate. Both molecule and marker source plates were made separately when a two-step assay was performed. In parallel, the cells were washed twice with the HBSS and maintained in 30 μl of the HBSS to prepare a cell assay plate. Both the cell assay plate and the molecule and marker source plate(s) were then incubated in the hotel of the reader system. After ˜1 hr of incubation the baseline wavelengths of all biosensors in the cell assay microplate were recorded and normalized to zero. Afterwards, a 2 to 10 minute continuous recording was carried out to establish a baseline, and to ensure that the cells reached a steady state. Cellular responses were then triggered by pipetting 10 μl of the marker solutions into the cell assay plate using the on-board liquid handler.
as §4, §5, §6

NT response in HT29 = experiment: Epic label-free DMR biosensor cellular assay, neurotensin marker in HT29; format: cell-based, human
Method: The NTS1 natural agonist neurotensin is known to activate the endogenous NTS1/NTS3 heterodimers in HT29 cells. […] Thus, neurotensin was chosen as an indirect marker for identifying potential EGFR inhibitors.
as §1, §2, §3, §4, §5, §6

VEGFR1 (FLT1) = target: T1, VEGFR1 (FLT1) (Homo sapiens, UniProt P17948); experiment: LanthaScreen TR-FRET kinase assay, VEGFR1 (FLT1); format: biochemical
T1 construct: purchased Invitrogen
T1 sequence (P17948 27-1338): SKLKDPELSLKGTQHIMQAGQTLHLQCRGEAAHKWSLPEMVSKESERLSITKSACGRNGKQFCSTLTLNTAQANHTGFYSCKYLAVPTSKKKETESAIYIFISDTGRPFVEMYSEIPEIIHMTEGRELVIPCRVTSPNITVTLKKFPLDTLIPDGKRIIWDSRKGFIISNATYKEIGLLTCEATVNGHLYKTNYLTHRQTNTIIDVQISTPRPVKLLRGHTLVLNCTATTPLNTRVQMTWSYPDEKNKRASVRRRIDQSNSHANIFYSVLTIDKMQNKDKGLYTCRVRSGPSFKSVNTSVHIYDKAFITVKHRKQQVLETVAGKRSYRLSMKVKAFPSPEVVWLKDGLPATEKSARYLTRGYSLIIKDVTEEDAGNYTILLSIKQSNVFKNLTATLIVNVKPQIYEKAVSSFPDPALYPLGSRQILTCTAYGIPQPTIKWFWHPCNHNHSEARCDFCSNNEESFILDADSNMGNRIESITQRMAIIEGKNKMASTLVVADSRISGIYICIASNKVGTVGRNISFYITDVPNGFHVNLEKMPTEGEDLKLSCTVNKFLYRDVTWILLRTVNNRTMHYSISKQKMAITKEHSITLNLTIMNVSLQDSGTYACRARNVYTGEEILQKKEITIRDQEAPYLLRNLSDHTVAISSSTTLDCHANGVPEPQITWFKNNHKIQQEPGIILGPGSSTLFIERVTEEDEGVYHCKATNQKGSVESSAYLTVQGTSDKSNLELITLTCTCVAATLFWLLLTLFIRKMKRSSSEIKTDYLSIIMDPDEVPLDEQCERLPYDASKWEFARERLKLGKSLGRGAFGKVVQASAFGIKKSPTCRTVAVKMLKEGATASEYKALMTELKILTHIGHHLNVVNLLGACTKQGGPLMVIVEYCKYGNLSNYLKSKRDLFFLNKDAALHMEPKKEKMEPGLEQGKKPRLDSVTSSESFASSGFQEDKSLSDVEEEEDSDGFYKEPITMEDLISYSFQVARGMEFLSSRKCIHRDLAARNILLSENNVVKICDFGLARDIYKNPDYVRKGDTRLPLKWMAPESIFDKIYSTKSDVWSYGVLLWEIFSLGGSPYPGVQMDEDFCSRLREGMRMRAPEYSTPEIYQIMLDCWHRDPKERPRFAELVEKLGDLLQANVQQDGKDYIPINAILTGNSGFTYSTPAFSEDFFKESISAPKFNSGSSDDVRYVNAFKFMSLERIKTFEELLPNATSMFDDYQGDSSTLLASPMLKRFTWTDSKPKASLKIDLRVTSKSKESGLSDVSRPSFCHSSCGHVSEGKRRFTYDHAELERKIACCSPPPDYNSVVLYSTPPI
Method: (§7) LanthaScreen TR-FRET kinase assay reagents and the recombinant EGFR, VEGFR1 (FLT1), VEGFR2 (KDR) were purchased from Invitrogen. Known kinase inhibitors were used as positive controls.
(§8) Each EGFR reaction contains 51 ng/ml kinase, 2.4 μM ATP and 0.2 μM substrate. […] Each VEGFR2 (KDR) reaction contains 4 ng/ml kinase, 13 μM ATP and 0.2 μM substrate. Kinase reactions are allowed to proceed for 1 hour at room temperature before a 10 μl preparation of EDTA (20 mM) and Tb-labeled antibody (4 nM) in TR-FRET dilution buffer are added. The final concentration of antibody in the assay well is 2 nM, and the final concentration of EDTA is 10 mM. The plate is allowed to incubate at room temperature for at least 30 minutes before being read on a Tecan SafireII plate reader configured for LanthaScreen™ TR-FRET (Excitation at 340 nm, emission at 495 nm and 520 nm). The final readout is the emission ratio 520 nm/495 nm. Each data point is the average of 4 replicates.

VEGFR2 (KDR) = target: T2, VEGFR2 (KDR) (Homo sapiens, UniProt P35968); experiment: LanthaScreen TR-FRET kinase assay, VEGFR2 (KDR); format: biochemical; conditions: for inhibition of FRET signal of VEGFR2 tyrosine kinase: compounds at 25 micromolar, FIG. 3
T2 construct: purchased Invitrogen
T2 sequence (P35968 20-1356): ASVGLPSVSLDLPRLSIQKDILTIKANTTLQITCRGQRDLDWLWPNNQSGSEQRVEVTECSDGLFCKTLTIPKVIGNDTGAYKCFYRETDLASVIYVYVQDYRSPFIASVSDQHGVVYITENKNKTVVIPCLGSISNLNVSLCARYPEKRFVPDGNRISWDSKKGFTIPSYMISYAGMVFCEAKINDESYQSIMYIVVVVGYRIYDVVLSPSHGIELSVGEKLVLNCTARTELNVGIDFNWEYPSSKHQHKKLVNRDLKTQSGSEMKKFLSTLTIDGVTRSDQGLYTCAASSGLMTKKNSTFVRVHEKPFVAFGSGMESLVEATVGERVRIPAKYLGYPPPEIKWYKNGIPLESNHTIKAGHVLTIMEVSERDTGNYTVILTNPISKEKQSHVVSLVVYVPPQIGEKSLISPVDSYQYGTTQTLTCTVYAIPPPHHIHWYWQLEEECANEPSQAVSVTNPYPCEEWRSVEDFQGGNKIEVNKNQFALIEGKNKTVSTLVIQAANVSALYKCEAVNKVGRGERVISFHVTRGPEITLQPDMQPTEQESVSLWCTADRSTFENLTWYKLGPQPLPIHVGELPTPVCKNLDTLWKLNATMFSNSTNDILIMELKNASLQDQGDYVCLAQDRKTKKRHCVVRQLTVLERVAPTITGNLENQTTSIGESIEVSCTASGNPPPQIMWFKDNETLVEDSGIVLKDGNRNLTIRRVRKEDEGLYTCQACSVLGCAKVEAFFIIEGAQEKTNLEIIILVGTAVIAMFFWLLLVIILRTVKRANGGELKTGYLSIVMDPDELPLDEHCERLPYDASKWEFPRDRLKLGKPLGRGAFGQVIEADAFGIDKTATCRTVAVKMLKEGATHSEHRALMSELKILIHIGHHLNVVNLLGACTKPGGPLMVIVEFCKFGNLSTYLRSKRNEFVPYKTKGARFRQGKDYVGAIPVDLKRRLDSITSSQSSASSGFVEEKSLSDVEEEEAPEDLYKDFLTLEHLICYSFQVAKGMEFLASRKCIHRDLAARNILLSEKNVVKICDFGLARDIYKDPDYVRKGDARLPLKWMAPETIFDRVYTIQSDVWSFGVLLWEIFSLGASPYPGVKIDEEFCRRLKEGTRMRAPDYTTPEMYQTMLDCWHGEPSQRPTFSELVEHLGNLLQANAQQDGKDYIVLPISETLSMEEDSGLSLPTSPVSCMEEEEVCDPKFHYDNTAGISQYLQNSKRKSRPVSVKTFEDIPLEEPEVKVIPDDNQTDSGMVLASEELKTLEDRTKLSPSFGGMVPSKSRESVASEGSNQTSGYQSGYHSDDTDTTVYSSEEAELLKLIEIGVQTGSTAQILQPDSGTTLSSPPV
Method: as §7, §8

EGFR [3] = target: T3, EGFR (Homo sapiens, UniProt P00533); experiment: LanthaScreen TR-FRET kinase assay, EGFR; format: biochemical; set-up: purchased Invitrogen; conditions: compounds at 25 micromolar; FIG. 1
T3 sequence (P00533 25-1210): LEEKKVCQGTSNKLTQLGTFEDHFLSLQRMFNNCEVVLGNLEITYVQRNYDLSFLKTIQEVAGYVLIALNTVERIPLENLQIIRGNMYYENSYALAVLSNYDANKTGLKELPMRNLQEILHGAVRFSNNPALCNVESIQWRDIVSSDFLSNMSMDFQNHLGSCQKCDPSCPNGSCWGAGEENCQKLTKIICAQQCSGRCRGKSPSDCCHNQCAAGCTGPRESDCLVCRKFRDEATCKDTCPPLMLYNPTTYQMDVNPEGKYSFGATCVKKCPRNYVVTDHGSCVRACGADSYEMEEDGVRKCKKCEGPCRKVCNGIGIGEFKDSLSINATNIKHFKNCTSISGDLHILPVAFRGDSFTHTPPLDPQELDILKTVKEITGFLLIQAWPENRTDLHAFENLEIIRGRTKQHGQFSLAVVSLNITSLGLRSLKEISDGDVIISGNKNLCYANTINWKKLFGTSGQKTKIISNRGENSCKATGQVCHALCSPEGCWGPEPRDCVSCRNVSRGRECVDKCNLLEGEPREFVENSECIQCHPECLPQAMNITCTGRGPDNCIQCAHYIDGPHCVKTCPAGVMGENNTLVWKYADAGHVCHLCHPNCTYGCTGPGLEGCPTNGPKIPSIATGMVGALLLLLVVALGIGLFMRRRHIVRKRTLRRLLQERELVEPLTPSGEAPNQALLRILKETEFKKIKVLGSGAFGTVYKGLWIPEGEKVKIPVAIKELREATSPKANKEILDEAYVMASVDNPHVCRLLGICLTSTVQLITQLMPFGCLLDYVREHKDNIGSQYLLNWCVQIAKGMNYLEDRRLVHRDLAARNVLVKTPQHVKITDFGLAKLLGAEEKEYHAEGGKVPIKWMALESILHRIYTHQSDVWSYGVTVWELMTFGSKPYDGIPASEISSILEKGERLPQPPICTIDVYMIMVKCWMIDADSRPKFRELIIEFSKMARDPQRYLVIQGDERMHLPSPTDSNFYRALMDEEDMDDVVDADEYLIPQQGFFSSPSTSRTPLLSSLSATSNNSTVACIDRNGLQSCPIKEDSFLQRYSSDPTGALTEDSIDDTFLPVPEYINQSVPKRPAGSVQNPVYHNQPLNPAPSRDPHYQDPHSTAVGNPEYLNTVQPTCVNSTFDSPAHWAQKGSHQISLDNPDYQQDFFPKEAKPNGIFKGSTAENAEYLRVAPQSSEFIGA

EGFR [4] = target: T3, EGFR; conditions: known inhibitors; cited from earlier work
HT29 cells = conditions: up to 100 nM; un-starved HT29 cells; data not shown
[5] = compounds at 25 micromolar, FIG. 2

## CCOC(=O)c1c(C)[nH]c(/C=C2\C(=O)Nc3ccccc32)c1C [VEGFR2 tyrosine kinase inhibitor I, (Z)-3-[(2,4-Dimethyl-3-(ethoxycarbonyl)pyrrol-5-yl)methylidenyl]indolin-2-one]
[1]; EGF at 32 nM
  impact on DMR signal of EGF in A431: little impact
EGF response in HT29; EGF at 2 nM
  impact on DMR signal of EGF in HT29: little impact
[2]; MTX at 16 micromolar
  impact on DMR signal of MTX in HT29: little impact
NT response in HT29; NT at 2 nM
  impact on DMR signal of NT in HT29: little impact

## CCCCCCCCCCc1csc2c(CCCCCC)c(C(=O)O)sc12 [I]
[1]; EGF at 32 nM, N-DMR ~30 min after EGF stimulation
  modulation of EGF response in A431, N-DMR: −65%
[1]; EGF at 32 nM, early P-DMR ~5 min after EGF stimulation
  modulation of EGF response in A431, early P-DMR: −60%
[1]; score = modulation percentage/10, 2nd coordinate
  modulation index score, EGF in A431 N-DMR: −6.5
EGF response in HT29; EGF at 2 nM, early P-DMR ~5 min after EGF stimulation
  modulation of EGF response in HT29, early P-DMR: −70%
EGF response in HT29; EGF at 2 nM, late P-DMR ~50 min after EGF stimulation
  modulation of EGF response in HT29, late P-DMR: −100%
EGF response in HT29; score = modulation percentage/10, 3rd coordinate
  modulation index score, EGF in HT29 early P-DMR: −7
EGF response in HT29; score = modulation percentage/10, 4th coordinate
  modulation index score, EGF in HT29 late P-DMR: −10
[2]; MTX at 16 micromolar, P-DMR 50 min after MTX stimulation
  modulation of MTX response in HT29, P-DMR: −60%
[2]; score = modulation percentage/10, 5th coordinate
  modulation index score, MTX in HT29 P-DMR: −6
NT response in HT29; NT at 2 nM, P-DMR 50 min after NT stimulation
  modulation of NT response in HT29, P-DMR: −106%
NT response in HT29; score = modulation percentage/10, 6th coordinate
  modulation index score, NT in HT29 P-DMR: −10.6

## CCCCCCc1csc2c(CCCCCC)c(C(=O)O)sc12 [Compound J, 3,6-Dihexyl-thieno[3,2-b]thiophene-2-carboxylic acid]
VEGFR1 (FLT1); [5]
  inhibition of FRET signal of VEGFR1 tyrosine kinase: less potent than the others
VEGFR2 (KDR)
  inhibition of FRET signal of VEGFR2 tyrosine kinase: less potent than the others
EGFR [3]
  inhibition of FRET signal of EGFR tyrosine kinase: less potent than the others

## O=C(O)c1cc(N(Cc2ccccc2O)Cc2cc(O)ccc2O)ccc1O [Lavendustin A]
EGFR [4]
  strength as EGFR inhibitor: weak EGFR inhibitor

## 6H-Indeno[1,2-e]tetrazolo[1,5-b][1,2,4]triazin-6-one & 10H-Indeno[2,1-e]tetrazolo[1,5-b][1,2,4]triazin-10-one [dual PDK1/AKT/Flt1 pathway inhibitor]
[1]; EGF at 32 nM, early P-DMR
  effect on early P-DMR event in the EGF response in A431: almost completely attenuated
EGF response in HT29; EGF at 2 nM, early P-DMR
  effect on early P-DMR event of the EGF response in HT29: almost completely attenuated
EGF response in HT29; EGF at 2 nM, late P-DMR
  effect on late P-DMR event of the EGF response in HT29: almost completely attenuated

## CCCCCCc1csc2cc(C(=O)O)sc12 [Compound H, 6-hexyl-thieno[3,2-b]thiophene-2-carboxylic acid]
VEGFR1 (FLT1); [5]
  inhibition of FRET signal of VEGFR1 tyrosine kinase: less potent than the others
VEGFR2 (KDR)
  inhibition of FRET signal of VEGFR2 tyrosine kinase: less potent than the others
EGFR [3]
  inhibition of FRET signal of EGFR tyrosine kinase: less potent than the others

## C[C@@H](N)[C@H]1CC[C@H](C(=O)Nc2ccncc2)CC1 [Compound Y-27632, reference compound]
VEGFR2 (KDR); concentration not given
  attenuation of FRET signal for VEGFR2 tyrosine kinase: significantly attenuated

## O=C1Nc2ccc(Br)cc2/C1=C/c1cc2c([nH]1)CCCC2 [VEGFR2 tyrosine kinase inhibitor II, (Z)-5-Bromo-3-(4,5,6,7-tetrahydro-1H-indol-2-ylmethylene)-1,3-dihydroindol-2-one]
[1]; EGF at 32 nM
  impact on DMR signal of EGF in A431: little impact
EGF response in HT29; EGF at 2 nM
  impact on DMR signal of EGF in HT29: little impact
[2]; MTX at 16 micromolar
  impact on DMR signal of MTX in HT29: little impact
NT response in HT29; NT at 2 nM
  impact on DMR signal of NT in HT29: little impact

## Cc1csc2c1sc1cc(C(=O)O)sc12 [Compound K, 5-methyldithieno[3,2-b:2′3′-d] thiophene-2-carboxyl acid]
VEGFR1 (FLT1); [5]
  inhibition of FRET signal of VEGFR1 tyrosine kinase: less potent than the others
VEGFR2 (KDR)
  inhibition of FRET signal of VEGFR2 tyrosine kinase: less potent than the others
EGFR [3]
  inhibition of FRET signal of EGFR tyrosine kinase: less potent than the others

## COc1cc2ncnc(Nc3cccc(Cl)c3)c2cc1OC [AG1478]
[2]; MTX at 16 micromolar
  impact on DMR signal of MTX in HT29: partial inhibition
NT response in HT29; NT at 2 nM
  impact on DMR signal of NT in HT29: partial inhibition

## CN[C@@H]1C[C@H]2O[C@@](C)([C@@H]1OC)n1c3ccccc3c3c4c(c5c6ccccc6n2c5c31)C(=O)NC4 [staurosporine, reference compound]
VEGFR1 (FLT1); at 10 micromolar
  inhibition of FRET signal of VEGFR1 tyrosine kinase: completely inhibited

## VEGF
HT29 cells
  DMR signal triggered: very small DMR signal

## c1ccc(-c2cnc(Nc3ccc(OCCN4CCCC4)cc3)s2)cc1 [Flt3 inhibitor III, (5-Phenyl-thiazol-2-yl)-(4-(2-pyrrolidin-1-yl-ethoxy)-phenyl)-amine]
[1]; EGF at 32 nM
  impact on DMR signal of EGF in A431: little impact
EGF response in HT29; EGF at 2 nM
  impact on DMR signal of EGF in HT29: little impact
[2]; MTX at 16 micromolar
  impact on DMR signal of MTX in HT29: little impact
NT response in HT29; NT at 2 nM
  impact on DMR signal of NT in HT29: little impact
